These results are taken from US20260176232A1, “PROBENECID COMPOUNDS FOR THE TREATMENT OF INFLAMMASOME-MEDIATED DERMATOLOGICAL CONDITIONS” (Bacainn Biotherapeutics, Ltd., priority 2022, published 2026).

In assay [1] the test system is NLRP1 inflammasome. The experiment in a line: IL-1β secretion in macrophages challenged with L18-MDP (FIG. 4C). Type of assay: cell-based, human. To be noted: BT032 20, 100 μM; MCC950 5 μM; L18-MDP 100 μg/ml 16 h. The text has this: (§1) In vitro stimulation of human macrophages.
Another assay concerns the target NLRC4 inflammasome (Mus musculus, UniProt Q3UP24). The experiment in a line: IL-1β secretion in macrophages challenged with Flagellin (FIG. 4C). The class given is cell-based, human. The note with it: BT032 20, 100 μM; 6 h.
From the text: as §1

Assay [2] relates to NLRP1 inflammasome. The experiment in a line: L18-MDP-induced IL-1β secretion in WT or NLRP3-/- immortalized BMDMs (FIG. 8). The class given is cell-based, murine. The note with it: 20, 50, 100, 350 μM. The text has this:
In vitro stimulation of murine macrophages.

Assay [3] concerns NLRP1-mediated inflammasome activity. Briefly: IC50 curve, L18-MDP-induced IL-1β secretion in LPS-primed immortalized BMDMs. Type of assay: cell-based, murine. The note with it: L18-MDP 100 μg/mL; drug 3.9-350 μM; FIG. 4B; read-out: half maximal inhibitory concentration (IC50), NLRP1-mediated inflammasome activity. As for the experimental part: FIGS. 4A and 4B are charts showing inflammasome activity as determined by measuring secreted IL-1β concentrations in murine immortalized BMDMs pre-activated with lipopolysaccharide (LPS; 100 ng/mL) for 3 h. The macrophages were stimulated with either the NLRP3 activator, nigericin (3 μM) (FIG. 4A) or the NLRP1 agonist L18-MDP (100 μg/mL) (FIG. 4B) and treated or not with BT032 (3.9-350 μM). […] BT032 versus normalized responses (variable slope).

In assay [4] the test system is anisomycin-induced psoriatic dermatitis. Briefly: Anisomycin-induced psoriatic dermatitis, topical treatment of murine ear. Also on record: species or system C57BL/6 mice. The note with it: mouse, in vivo. The text has this: Psoriasis is a chronic inflammatory skin disease characterized by IL-17-mediated immune responses, and p38 is known to be highly activated in the psoriatic epidermis. In this example, a p38 activator, anisomycin, is applied daily to murine skin. The probenecid analogs of the present technology (e.g., BT032) are applied to murine psoriatic models topically or to human psoriatic skin specimens ex vivo. Mice. Eight- to 12-week old female mice are used in this study. All animals are of the C57BL/6 genetic background. Animals are maintained under specific pathogen-free conditions. Anisomycin treatment. Anisomycin solution (2 mg/mL in 99.5% ethanol) is applied to the inner and outer sides of a murine ear once daily at a dosage of 10 μL per side of the ear. Histological analyses. For histologic examination, ear skin samples are fixed with 10% formalin and embedded in paraffin. Sections along the median plane of the ear with a thickness of 5 μm are prepared and subjected to staining with hematoxylin and eosin (H&E). Images of two consecutive microscopic fields of H&E-stained sections are obtained using a digital microscope. Time course changes in ear thickness are measured. Thickness is measured daily before treatment.

In assay [5] the test system is inflammasome activation by UVB. Briefly: Dermal UVB inflammatory challenge in healthy volunteers after intradermal dosing. Type of assay: in vivo, human. As for the experimental part: This is a single-center, inflammatory challenge study in healthy volunteers, to evaluate inflammasome activation by UVB in healthy volunteers. Healthy volunteers will undergo a topical UVB challenge after intradermal dosing with BT032.
UV-B Challenge+BT032 (n=9; 3 Placebo, 6 Active): • Screening: 1 hour admission • Study day (day −1 to 1): 24 hours admission (baseline assessments, challenge, and 2, 4 hr blister, skin assessments) • Follow-up visit 1 (day 2): 1 hour admission (24 hr blister) • End of study visit (+7 days): 1 hour admission
Investigational drug (BT032)+UVB challenge. As part of the screening assessments, the subject's Fitzpatrick skin photo type is determined (type I-VI). The subject is first exposed to 6 different doses of UV-B, to determine the Minimal Erythemic Dose (MED) expressed in J/cm^2, using the six different slots of the UV-B lamp. Twenty-four hours (±2 hours) after the exposure of the 6 doses, the erythemic response of the skin to UV-B is assessed by two observers. The MED is determined visually, by observing which dose produces the first clearly discernible erythema. On the treatment days, the subject's skin is exposed to two minimal erythema doses (2MED) of UVB.
Subjects Groups. A total of 9 healthy volunteers will be enrolled. These subjects will undergo an UVB challenge after dosing with BT032. […]

The test system of assay [6] is NLRP1 inflammasome. The experiment in a line: IL-1β secretion in macrophages challenged with L18-MDP (FIG. 7). The class given is cell-based, human. The note with it: 20, 100, 350 μM, L18-MDP 100 μg/mL 16 hours, secreted IL-1β.
From the text: as §1

The structures appear in SMILES notation. pIC50: −log10 of the molar value.

NLRC4 inflammasome, sequence (Q3UP24 whole entry): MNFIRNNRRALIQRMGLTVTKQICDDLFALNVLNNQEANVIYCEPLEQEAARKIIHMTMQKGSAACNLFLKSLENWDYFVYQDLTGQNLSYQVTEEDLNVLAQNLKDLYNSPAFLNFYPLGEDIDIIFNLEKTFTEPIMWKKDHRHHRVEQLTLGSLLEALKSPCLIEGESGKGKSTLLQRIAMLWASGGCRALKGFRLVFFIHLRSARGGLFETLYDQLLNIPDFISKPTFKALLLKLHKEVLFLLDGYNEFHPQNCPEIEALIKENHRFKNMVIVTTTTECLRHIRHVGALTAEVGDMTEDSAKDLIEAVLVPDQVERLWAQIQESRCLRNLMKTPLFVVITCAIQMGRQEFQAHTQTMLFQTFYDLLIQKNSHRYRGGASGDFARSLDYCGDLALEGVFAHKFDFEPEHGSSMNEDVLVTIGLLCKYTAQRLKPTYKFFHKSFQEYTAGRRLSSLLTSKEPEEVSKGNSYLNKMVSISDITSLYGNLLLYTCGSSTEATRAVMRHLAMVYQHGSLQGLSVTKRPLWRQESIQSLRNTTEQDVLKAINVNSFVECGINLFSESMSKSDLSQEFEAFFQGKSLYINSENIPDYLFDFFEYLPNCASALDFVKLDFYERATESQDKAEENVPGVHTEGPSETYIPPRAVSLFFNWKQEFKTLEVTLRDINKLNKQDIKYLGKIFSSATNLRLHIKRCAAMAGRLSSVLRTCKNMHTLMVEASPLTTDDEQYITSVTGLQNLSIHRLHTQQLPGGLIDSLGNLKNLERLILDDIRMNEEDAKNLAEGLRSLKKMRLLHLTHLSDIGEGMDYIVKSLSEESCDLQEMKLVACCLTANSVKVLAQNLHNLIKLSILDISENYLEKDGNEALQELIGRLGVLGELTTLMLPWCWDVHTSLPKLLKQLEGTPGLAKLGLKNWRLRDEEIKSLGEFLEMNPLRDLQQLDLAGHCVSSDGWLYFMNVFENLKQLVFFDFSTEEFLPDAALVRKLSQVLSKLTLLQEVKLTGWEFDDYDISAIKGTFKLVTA

On to `CCCN(CCC)S(=O)(=O)c1ccc(-c2ccc(CCCC(=O)O)cc2)cc1` [BT032, 4-(4′-(N,N-dipropylsulfamoyl)-[1,1′-biphenyl]-4-yl)butanoic acid], for which the “NLRP1 (L18-MDP)-induced inflammasome activation” value in the assay with NLRP1 inflammasome [1] and in the assay with NLRP1 inflammasome [6] was “dose-dependently inhibited” in each case. Moreover, on NLRC4 inflammasome, the “NLRC4 (Flagellin)-mediated inflammasome activation” value is reported as “no effect”. For the same compound, the “NLRP1 (L18-MDP)-induced inflammasome activation as measured by IL-1β secretion” value with NLRP1 inflammasome [2] (NLRP3-/- macrophages) and in the assay with NLRP1 inflammasome [2] (WT macrophages) was “dose-dependently inhibited” throughout. For the same compound, in assay [3], the pIC50 was 4.52. The “ear thickness, scaly erythema, and histologic changes induced by anisomycin” value in assay [4] was “attenuated”. Further, in assay [5] (IL-1β, IL-18, IL-6, TNF, NLRP3, ASC, NLRP1), the “levels of inflammasome-driven cytokines and/or inflammasome proteins versus non-treated controls” value was “reduced levels”. Moreover, in assay [5] (intradermal dosing, UVB 2MED), the “activation of inflammasomes versus non-treated controls” value is listed as “reduction in the activation of inflammasomes”.
